Values of other authors in publication PMC7958448, “Bepridil is potent against SARS-CoV-2 in vitro” (Proceedings of the National Academy of Sciences of the …, 2021).

System: SARS-CoV-2 in Vero E6 cells
Details: cited from earlier work

In the case of CCC(CC)COC(=O)[C@H](C)N[P@](=O)(OC[C@H]1O[C@@](C#N)(c2ccc3c(N)ncnn23)[C@H](O)[C@@H]1O)Oc1ccccc1 [remdesivir], the EC50 is given as 770 nM.
